Results published in patent US20210261570A1, “ANTIBIOTIC RESISTANCE BREAKERS” (KING'S COLLEGE LONDON, priority 2017, published 2021).
Values after ≈ are worked out from the molar mass of the structure shown. Values joined by “and” are separate entries in the source; they are usually repeats but may differ in a detail not shown here. Identical values can stand only once. Like-named read-outs stand apart in the source and are kept apart here.

Tests used:
S. aureus SA 046 = assay: MIC, MDR strains with target mutations; type: cell-based
S. aureus SA 454 = assay: MIC, MDR strains with target mutations; type: cell-based
S. aureus SA 318 = type: cell-based
S. aureus SA 105 = type: cell-based; conditions: in µg/mL
EMRSA16 = assay: MIC, microdilution broth method; type: cell-based, Staphylococcus aureus; conditions: EMRSA16
[1] = Single dose pharmacokinetics study, oral and intravenous, blood and urine; type: in vivo; conditions: mouse; for Cmax: read-out: Co/Cmax
Procedure: ICR breed Mice (CD-1® IGS mice) were used in these studies and was supplied by Charles River (Margate UK) and. The mice were allowed to acclimatise for at least 7 days before starting the study. Treatments was administered by oral route or intravenous route according to the table below. For the PK study, 12 mice for each compound for oral route and 12 mice per compound for the intravenous route was treated. Mice was sequentially bled from a caudal vein into a 20 μL capillary (by agreement containing an anticoagulant) at different time as indicated in table below and a terminal bleed by cardiac puncture at 8 h after administration. Samples collected by capillary was directly transferred into a 96 well and mixed with 20 μL of water, then frozen and store at −80° C. until bioanalysis. Mice for urine collection was housed singly in metabolic cages and urine collected at 0-1, 1-2, 2-4 h and 4-8 h post administration. Urine removed from the collection vessels in the metabolic cages and were frozen and store at −80° C. until bioanalysis. 12 mice were used for urine collection. […] A compound specific LC-MS/MS method was developed for each test compound and samples was quantified using matrix matched calibrators. Samples was prepared for bio-analysis via protein precipitation. Concentration vs time data and non-compartmental analysis was utilised to determine relevant PK parameters e.g. CL, Vss, t1/2, AUCinf AUCo-t, Cmax, tmax, % F, % dose in urine and CLR.

[2] = system: Staphylococcus aureus ATCC29213; assay: Murine model of thigh infection (neutropenic ICR mice); conditions: for decrease of thigh bacterial burden compared to vehicle group: 8 h and 14 h post infection
Description: 40 Male mice used in these study were supplied by Charles River UK and were specific pathogen free. The strain of mouse used was Hsd:ICR (CD-1®), which is a well characterized outbred strain. Mice were 11-15 g on receipt at Evotec's facility and were allowed to acclimatize for minimum of 7 days prior to infection. Mice were approximately 28 g at the start of the study. Mice were housed in sterile individual ventilated cages exposing animals at all times to HEPA filtered sterile air. Mice had free access to food and water (sterile) and had sterile aspen chip bedding. The room temperature was 22° C.±1° C., with a relative humidity of 50-60% and maximum background noise of 56 dB. Mice were exposed to 12 hour light/dark cycles with dawn/dusk phases.
All mice were rendered neutropenic by immunosuppression with cyclophosphamide at 150 mg/kg 4 days before infection and then 100 mg/kg 1 day before infection administered by intraperitoneal injection. The immunosuppression regime leads to neutropenia starting 24 hours post administration of the first injection, which continues throughout the study. Mice were infected approximately 24 hours after the second dose of immunosuppressive agent.
Staphylococcus aureus ATCC29213 was used for the study.
Whilst still under anaesthesia mice were administered a single dose of buprenorphine (0.03 mg/kg) subcutaneously for pain relief.
Test articles and comparator were prepared in stock solutions at 10× concentration as described in Table 20. The stock solutions were prepared in aliquots (1 aliquot per time of dosing) and frozen at −20° C. The solutions were thawed and then diluted in water just before dosing to obtain the appropriate concentration of 5 mg/mL or 2 mg/mL for oral administration at 10 mL/kg of the dose of 50 mg/kg or 20 mg/kg respectively (Table 20). 10% DMSO in water was used as the vehicle
After sacrifice of animal, both posterior thighs were removed, weighed, then homogenised in 2 mL PBS using a Precellys bead beater and the homogenates individually quantitatively cultured on CLED agar to determine the bacterial burdens.
The data from the culture burdens were analysed using appropriate non-parametric statistical models (Kruskal-Wallis using Conover-Inman to make all pairwise comparisons between groups) with StatsDirect software v. 2.7.8., and compared to pre-treatment and vehicle controls.

S. aureus USA300 = assay: MIC; type: cell-based; conditions: Staphylococcus aureus
E. faecium EF 205 = type: cell-based
VRE12201 = assay: MIC, microdilution broth method; type: cell-based, E. faecalis; conditions: VRE12201; Gram-positive; in µg/mL
E. faecalis EF 602 = type: cell-based
S. aureus SA 215 = assay: MIC, MDR strains with target mutations; type: cell-based; conditions: in µg/mL
S. aureus SA 238 = assay: MIC, MDR strains with target mutations; type: cell-based
S. aureus SH1000 = assay: MIC; type: cell-based; conditions: Staphylococcus aureus
S. aureus SA 388 = type: cell-based
S. aureus SA 275 = assay: MIC, MDR strains with target mutations; type: cell-based; conditions: S. aureus SA 275 (gyrA, 84: S => V)
[3] = system: S. aureus SA275 (gyrA, 84: S => L); assay: MIC, MDR strains with target mutations; type: cell-based; conditions: Table 11 second entry
EMRSA15 = assay: MIC, microdilution broth method; type: cell-based, Staphylococcus aureus; conditions: EMRSA15; in µg/mL
[4] = system: multidrug resistant strains; assay: Reserpine growth assay in several multidrug resistant strains; type: cell-based; conditions: FIG. 27
Procedure: Reserpine was added at a final concentration of 10 g/mL (made up at 40 μg/mL in TSB, 50 μL per well). The bacteria were added at an OD of 0.01 in TSB (100 μL/well). The plate was a normal clear plate as used for MICs. OD was read every 30 minutes for 9 hours (the literature states 7 hours, but this is strain-dependent). Blanks of TSB and water were added to ensure no infections were present.

S. aureus SA 282 = assay: MIC, MDR strains with target mutations; type: cell-based
[5] = ICR (CD-1 IGS), in vivo, iv, 5.0 mg/kg, blood, Composite Mean
[6] = ICR (CD-1 IGS), in vivo, iv, 5 mg/kg
[7] = ICR (CD-1 IGS), in vivo, po, 20 mg/kg

SMILES: C[C@H]1COc2c(N3CCN(C)CC3)c(F)cc3c(=O)c(C(=O)O)cn1c23 [Levofloxacin, levofloxacin]
- MIC (S. aureus SA 046): 16 mg/L (≈ 44.3 µM)
- MIC (S. aureus SA 454): 8 mg/L (≈ 22.1 µM)
- MIC (S. aureus SA 318): 16 mg/L (≈ 44.3 µM)
- MIC (S. aureus SA 105): 8-16
- MIC (EMRSA16; Gram-positive): 16 mg/L (≈ 44.3 µM)
- Cmax ([1]; ICR (CD-1 IGS), in vivo, PO, 20.0 mg/kg, blood, Mean): 2.95 µg/mL
- half-life [1, 5]: 0.5 h
- Cmax [1, 5]: 3.89 µg/mL
- AUC [1, 6]: 3090 ng·h/mL and 8.55 µM·h
- AUC(0-inf) [1, 6]: 3310 ng·h/mL and 9.19 µM·h
- MRT [1, 6]: 3 h
- Vd [1, 6]: 4.5 L/kg
- clearance [1, 6]: 1.51 L/h/kg
- AUC [1, 7]: 4260 ng·h/mL and 11.8 µM·h
- AUC(0-inf) [1, 7]: 5390 ng·h/mL and 14.9 µM·h
- Bioavailability (%) Using AUCo. t [1, 7]: 34.5%
- Tmax [1, 7]: 0.5 h
- T1/2 ([1]; PO, 20.0 mg/kg, blood, Mean): 5.7 h
- decrease of thigh bacterial burden compared to vehicle group ([2]; 20 mg/kg/dose oral at 2 h, 18 h post infection): ~5 log10 CFU/g
- decrease of thigh bacterial burden compared to vehicle group ([2]; 50 mg/kg/dose oral at 2 h, 18 h post infection): ~5 log10 CFU/g
- body weights following infection ([2]; in vivo): unchanged
- Statistic analysis of thigh burden, P versus ML-83-009 20 mg/kg ([2]; substance at 20 mg/kg): P = 0.0003
- Statistic analysis of thigh burden, P versus ML-83-009 50 mg/kg ([2]; substance at 20 mg/kg): P = 0.0058
- Statistic analysis of thigh burden, P versus Vehicle ([2]; substance at 20 mg/kg): P < 0.0001
- Statistic analysis of thigh burden, P versus ML-83-009 20 mg/kg ([2]; substance at 50 mg/kg): P < 0.0001
- Statistic analysis of thigh burden, P versus ML-83-009 50 mg/kg ([2]; substance at 50 mg/kg): P < 0.0001
- Statistic analysis of thigh burden, P versus Pre treatment ([2]; substance at 50 mg/kg): P = 0.0084
- Statistic analysis of thigh burden, P versus Vehicle ([2]; substance at 50 mg/kg): P < 0.0001
- MIC (S. aureus USA300): 8 mg/L (≈ 22.1 µM)
- MIC (E. faecium EF 205): > 32 mg/L
- MIC (VRE12201): 0.5-1
- MIC (E. faecalis EF 602): > 32 mg/L
- MIC (S. aureus SA 215): 32 and 16
- MIC (S. aureus SA 238): 32 mg/L (≈ 88.6 µM)
- MIC (S. aureus SH1000): 2 to 4 mg/L (≈ 5.53 to 11.1 µM)
- MIC (S. aureus SA 388): 16 mg/L (≈ 44.3 µM)

SMILES: C[C@H]1COc2c(N3CC[C@@H](Nc4ncccn4)C3)c(F)cc3c(=O)c(C(=O)O)cn1c23 [KSN-L22, (S)-9-fluoro-3-methyl-7-oxo-10-((R)-3-(pyrimidin-2-ylamino)pyrrolidin-1-yl)-2,3-dihydro-7H-[1,4]oxazino[2,3,4-ij]quinoline-6-carboxylic Acid]
- MIC (S. aureus SA 046): 1 mg/L (≈ 2.35 µM)
- MIC (S. aureus SA 275): 1 mg/L (≈ 2.35 µM)
- MIC (S. aureus SA 454): 1 mg/L (≈ 2.35 µM)
- MIC (S. aureus SA 105): 1
- MIC (EMRSA16): 1 mg/L (≈ 2.35 µM)
- clearance ([1]; ICR (CD-1 IGS), in vivo, iv, 5.0 mg/kg, blood, Composite Mean, read-out: Blood CL): 0.75 L/h/kg
- AUC(0-inf) [1, 6]: 6.69 µg·h/mL
- AUC(0-inf) [1, 7]: 13.2 µg·h/mL
- Bioavailability (%) Using AUCinf [1, 7]: 49.3%
- Bioavailability (%) Using AUCo. t [1, 7]: 32.0%
- CL_F [1, 7]: 1.58 L/h/kg
- T1/2 ([1]; PO, 20.0 mg/kg, blood, Mean): 5.1 h
- Vdss ([1]; iv, 5.0 mg/kg, blood, Composite Mean): 1.4 L/kg
- MIC [3]: 1 mg/L (≈ 2.35 µM)
- thigh bacterial burden, result in words ([2]; 20 and 50 mg/kg, 18 h post infection): statistically significant reduction of bacterial load
- MIC (EMRSA15): 0.5-1
- MIC (S. aureus SA 215): 1
- efflux from the bacteria (reserpine growth assay) [4]: reduced efflux
- MIC (S. aureus SA 238): 1 mg/L (≈ 2.35 µM)
- MIC (S. aureus SA 282): 1 mg/L (≈ 2.35 µM)
